# Assay results taken from paper PMC4844192 (ACS chemical biology, 2015).
# Columns and labels:
# [1] = system: CtBP; assay type: biochemical, human
# [2] = target: CtBP2 (Homo sapiens, UniProt P56545); assay: Isothermal titration calorimetry; assay type: binding
# [3] = system: HCT116 colon cancer cells; conditions: through displacement of CtBP2 from the Bik promoter; cited from earlier work
# [4] = system: mouse xenograft models; conditions: compared with untreated mice; cited from earlier work
# [5] = system: CtBP; conditions: cited from earlier work
# [6] = target: CtBP1 (Homo sapiens, UniProt Q13363); assay: Isothermal titration calorimetry; conditions: CtBP1, pH 7.5, displacement ITC with HIPP
# [7] = system: CtBP; conditions: cited from earlier work; remark: listed apart in the source
# [8] = CtBP2, pH 8.5, competitive displacement ITC with HIPP
smiles,measurement,setting,value
"O=C(O)C(=O)Cc1ccccc1 [PPy, phenylpyruvate]",IC50,"[1]; CtBP dehydrogenase function, after 15 minutes",135 µM
same,binding relative to MTOB (ITC injection peaks),"[2]; CtBP2, low PPy concentrations, CtBP2 precipitation prevented quantitation",tighter than MTOB
"CSCCC(=O)C(=O)O [MTOB, 4-methylthio 2-oxobutyric acid]",apoptosis,[3],induced apoptosis
same,substrate inhibition,[1]; MTOB in excess,exhibits substrate inhibition when in excess
same,survival,[4],prolonged survival
same,tumor burden,[4],decreased tumor burden
same,concentrations required for (substrate) inhibition of CtBP,[5],> 300 µM
same,"binding dissociation constant, direct ITC measurement","[2]; CtBP2, direct titration, low signal",low millimolar range
same,ΔG,[2]; [8],-3.4 kcal
same,ΔH,[2]; [8],-3.4 ± 0.34 kcal/mol
same,−TΔS,[2]; [8],0.0 kcal/mol
same,ΔG,[6],-3.9 kcal
same,ΔH,[6],-11.3 ± 0.83 kcal/mol
same,−TΔS,[6],7.4 kcal/mol
NC(=O)C1=CN([C@@H]2O[C@H](COP(=O)(O)OP(=O)(O)OC[C@H]3O[C@@H](n4cnc5c(N)ncnc54)[C@H](O)[C@@H]3O)[C@@H](O)[C@H]2O)C=CC1 [NADH],affinity of CtBP for NADH relative to NAD+,[7],100 fold
